Tests used:
Alternaria solani = assay: In vivo test on Alternaria solani (tomato leaf spot), preventive spray; conditions: 168 h, tomato young plants, evaluated 7 days after inoculation, good (at least 70%) to total protection
Protocol: In Vivo Test on Alternaria Solani (Tomato Leaf Spot) [table] To produce a suitable preparation of active compound, 1 part by weight of active compound is mixed with the stated amounts of solvent and emulsifier, and the concentrate is diluted with water to the desired concentration. Young plants are sprayed with the preparation of active compound at the stated rate of application. After the spray coating has dried on, the plants are inoculated with an aqueous spore suspension of Alternaria solani. The plants remain for one day in an incubation cabinet at approximately 20° C. and a relative atmospheric humidity of 100%. Then the plants are placed in an incubation cabinet at approximately 20° C. and a relative atmospheric humidity of 96%. The test is evaluated 7 days after the inoculation. Under these conditions, good (at least 70%) to total protection is observed at a dose of 500 ppm with the following compounds 110, 143, 160, 175, 176, 178, 179, 180, 186, 187, 189, 192, 196, 198, 203, 204, 205, 209, 210, 212, 214, 215 and 652.

[1] = logP by HPLC on reversed-phase column (C 18), EEC Directive 79/B31 Annex V.A8, methods A and B; format: physicochemical; conditions: linear gradient 10% to 90% acetonitrile; for chromatographic logP: reversed-phase HPLC column (C 18)
Protocol: Calibration was carried out using unbranched alkan-2-ones (having 3 to 16 carbon atoms) with known logP values (determination of the logP values by the retention times using linear interpolation between two successive alkanones).

Podosphaera leucotricha = assay: In vivo test on Podosphaera leucotricha (apple mildew), preventive spray; conditions: 240 h, apple young plants, evaluated 10 days after inoculation, good (at least 70%) to total protection
Protocol: In Vivo Test on Podosphaera leucotncha (Apple Mildew) [table] To produce a suitable preparation of active compound, 1 part by weight of active compound is mixed with the stated amounts of solvent and emulsifier, and the concentrate is diluted with water to the desired concentration. Young plants are sprayed with the preparation of active compound at the stated rate of application. After the spray coating has dried on, the plants are inoculated with an aqueous spore suspension of the causal agent of apple mildew (Podosphaera leucobicha). The plants are then placed in a greenhouse at approximately 23° C. and a relative atmospheric humidity of approximately 70%. The test is evaluated 10 days after the inoculation. Under these conditions, good (at least 70%) to total protection is observed at a dose of 100 ppm with the following compounds: 104, 160, 176, 177, 180, 186, 187, 188, 192, 194, 196, 198, 203, 204, 205, 207, 209, 210, 211, 212, 213, 218 and 446.

Pyrenophora teres = assay: In vivo test on Pyrenophora teres (barley net blotch); conditions: 288 h, barley plants (Express variety), grading 12 days after contamination, good (at least 70%) or total protection
Protocol: In Vivo Test on Pyrenophore teres (Barley Net Blotch)
(§1) The active ingredients tested are prepared by homogenisation in a mixture of acetone/tween/DMSO, then diluted with water to obtain the desired active material concentration. Barley plants (Express variety) in starter cups, sown on a 50/50 peat soil-pozzolana substrate and grown at 12° C., are treated at the 1-leaf stage (10 cm tall) by spraying with the active ingredient prepared as described above. Plants, used as controls, are treated with the mixture of acetone/tween/DMSO/water not containing the active material.
After 24 hours, the plants are contaminated by spraying them with an aqueous suspension of Pyrenophora teres spores (12,000 spores per ml). The spores are collected from a 12-day-old culture. The contaminated barley plants are incubated for 24 hours at about 20° C. and at 100% relative humidity, and then for 12 days at 80% relative humidity.

[2] = test system: Mycosphaerella graminicola; assay: In vivo test on Mycosphaerella graminicola (wheat leaf spot); conditions: Zymoseptoria tritici, wheat plants (Scipion variety), grading 21 to 28 days after contamination, good (at least 70%) or total protection, read-out: protection (% of efficacy)
Protocol: In vivo Test on Mycosphaerella graminicola (Wheat Leaf Spot)
The active ingredients tested are prepared by homogenisation in a mixture of acetone/tween/DMSO, and then diluted with water to obtain the desired active material concentration.
Wheat plants (Scipion variety), sown on a 50/50 peat soil-pozzolana substrate in starter cups and grown at 12° C., are treated at the 1-leaf stage (10 cm tall) by spraying with the active ingredient prepared as described above.
Plants, used as controls, are treated with the mixture of acetone/tween/DMSO/water not containing the active material.
After 24 hours, the plants are contaminated by spraying them with an aqueous suspension of Mycosphaerella graminicola spores (500 000 spores per ml). The spores are collected from a 7-day-old culture. The contaminated wheat plants are incubated for 72 hours at 18° C. and at 100% relative humidity, and then for 21 to 28 days at 90% relative humidity.
Grading (% of efficacy) is carried out 21 to 28 days after the contamination, in comparison with the control plants.

Puccinia recondita = assay: In vivo test on Puccinia recondita f. sp. tritici (wheat brown rust); conditions: 240 h, wheat plants (Scipion variety), grading 10 days after contamination, good (at least 70%) or total protection
Protocol: In vivo Test on Puccinia reconditef. Sp. tritici (Wheat Brown Rust)
as §1, with “Wheat” for “Barley”, “(Scipion” for “(Express”, “on” for “on a”
After 24 hours, the plants are contaminated by spraying the leaves with an aqueous suspension of Puccinia recondita spores (100,000 spores per ml). The spores are collected from a 10-day-old contaminated wheat and are suspended in water containing 2.5 ml/of tween 80 10%. The contaminated wheat plants are incubated for 24 hours at 20° C. and at 100% relative humidity, and then for 10 days at 20° C. and at 70% relative humidity. Grading is carried out 10 days after the contamination, in comparison with the control plants.

[3] = test system: Erysiphe graminis f.sp. horde; assay: In vivo test on Erysiphe graminis (barley mildew), preventive spray; conditions: Blumeria graminis, 168 h, barley young plants, evaluated 7 days after inoculation, good (at least 70%) to total protection
Protocol: In Vivo Test on Erysiphe Graminis (Barley Mildew) [table] To produce a suitable preparation of active compound, 1 part by weight of active compound or active compound combination is mixed with the stated amounts of solvent and emulsifier, and the concentrate is diluted with water to the desired concentration. Young plants are sprayed with the preparation of active compound or active compound combination at the stated rate of application. After the spray coating has dried on, the plants are dusted with spores of Erysiphe graminis f.sp. horde. The plants are placed in a greenhouse at a temperature of approximately 20° C. and a relative atmospheric humidity of approximately 80% to promote the development of mildew pustules. The test is evaluated 7 days after the inoculation. Under these conditions, good (at least 70%) to total protection is observed at a dose of 1000 ppm with the following compounds: 104, 160, 177, 178, 186, 192, 194, 203, 204, 205, 207, 210, 212, 213 and 435.

[4] = HPLC reversed-phase C 18, method A: 43° C., 0.1% aqueous phosphoric acid, acetonitrile
[5] = HPLC reversed-phase C 18, method B: 40° C., 0.1% aqueous formic acid and acetonitrile
[6] = LogP method A: HPLC reversed-phase C 18, 43° C., 0.1% aqueous phosphoric acid / acetonitrile
[7] = LogP method B: HPLC reversed-phase C 18, 40° C., 0.1% aqueous formic acid / acetonitrile

Row | Structure (SMILES) | pest or weed control at 500 ppm (Alternaria solani) [%] | chromatographic logP [1, 4] | pest or weed control at 500 ppm (Pyrenophora teres) [%] | pest or weed control at 500 ppm [2] [%] | other results
1 | COc1nn(C)cc1C(=O)N(C1CC1)S(=O)(=O)c1ccc(Oc2ccccc2)cc1 [Compound 143] | ≥ 70 | – | – | – | –
2 | Cc1cccc(S(=O)(=O)N(C(=O)c2c(C)nn(C)c2F)C2CC2)c1 [Compound 175] | ≥ 70 | 2.61 | – | – | –
3 | Cc1nn(C)c(F)c1C(=O)N(C1CC1)S(=O)(=O)c1cccc(O)c1 [Compound 176] | ≥ 70 | 2.82 | – | – | pest or weed control at 100 ppm (Podosphaera leucotricha): ≥ 70%
4 | Cc1nn(C)c(F)c1C(=O)N(C1CC1)S(=O)(=O)c1ccc(F)cc1 [Compound 179] | ≥ 70 | 2.46 | – | – | –
5 | Cc1nn(C)c(F)c1C(=O)N(C1CC1)S(=O)(=O)c1ccccc1O [Compound 180] | ≥ 70 | 2.34 | ≥ 70 | – | pest or weed control at 100 ppm (Podosphaera leucotricha): ≥ 70%
6 | Cc1nn(C)c(F)c1C(=O)N(C1CC1)S(=O)(=O)c1ccc(Oc2ccccc2)cc1 [Compound 187] | ≥ 70 | 3.42 | – | – | pest or weed control at 100 ppm (Podosphaera leucotricha): ≥ 70%
7 | Cc1cc(C)c(S(=O)(=O)N(C(=O)c2c(C)nn(C)c2F)C2CC2)c(C)c1 [Compound 189] | ≥ 70 | 3.05 | – | – | –
8 | Cc1ccccc1S(=O)(=O)N(C(=O)c1c(C)nn(C)c1F)C1CC1 [Compound 196] | ≥ 70 | 2.43 | – | – | pest or weed control at 100 ppm (Podosphaera leucotricha): ≥ 70%
9 | Cc1ccc(C)c(S(=O)(=O)N(C(=O)c2c(C)nn(C)c2F)C2CC2)c1 [Compound 198] | ≥ 70 | 2.78 | – | – | pest or weed control at 100 ppm (Podosphaera leucotricha): ≥ 70%
10 | Cc1nn(C)c(F)c1C(=O)N(C1CC1)S(=O)(=O)c1ccc(-c2ccccc2)cc1 [Compound 209] | ≥ 70 | 3.39 | – | – | pest or weed control at 100 ppm (Podosphaera leucotricha): ≥ 70%
11 | Cc1nn(C)cc1C(=O)N(C1CC1)S(=O)(=O)c1ccccc1O [Compound 214] | ≥ 70 | – | – | – | LogP [1, 4]: 2.31
12 | Cc1nn(C)c(C)c1C(=O)N(C1CC1)S(=O)(=O)c1ccccc1O [Compound 215] | ≥ 70 | 2.17 | – | – | –
13 | Cc1cccc(Oc2ccc(S(=O)(=O)N(C(=O)c3cn(C)nc3C(F)F)C3CC3)cc2)c1 [Compound 254] | – | – | ≥ 70 | ≥ 70 | –
14 | COc1nn(C)cc1C(=O)N(C1CC1)S(=O)(=O)c1ccc(-c2cccc3ccccc23)cc1 [Compound 258] | – | – | ≥ 70 | ≥ 70 | –
15 | CCCCOc1ccc(S(=O)(=O)N(C(=O)c2cn(C)nc2OC)C2CC2)cc1 [Compound 262] | – | – | ≥ 70 | ≥ 70 | pest or weed control at 500 ppm (Puccinia recondita): ≥ 70%
16 | CCCCOc1ccc(S(=O)(=O)N(C(=O)c2c(C)nn(C)c2F)C2CC2)cc1 [Compound 263] | – | – | ≥ 70 | ≥ 70 | –
17 | CCc1nn(C)c(F)c1C(=O)N(C1CC1)S(=O)(=O)c1ccccc1Br [Compound 374] | – | – | ≥ 70 | ≥ 70 | chromatographic logP [1, 5]: 2.7
18 | CCc1nn(C)c(F)c1C(=O)N(C1CC1)S(=O)(=O)c1ccc(C(F)(F)F)cc1Br [Compound 375] | – | – | ≥ 70 | ≥ 70 | chromatographic logP [1, 5]: 3.6
19 | CCc1nn(C)c(F)c1C(=O)N(C1CC1)S(=O)(=O)c1c(O)cc(C(F)(F)F)cc1O [Compound 387] | – | – | ≥ 70 | ≥ 70 | chromatographic logP [1, 5]: 3.8
20 | Cc1nn(C)c(F)c1C(=O)N(C1CC1)S(=O)(=O)c1cc(O)sc1O [Compound 435] | – | – | – | – | pest or weed control at 1000 ppm [3]: ≥ 70%; chromatographic logP [1, 6]: 3.16
21 | Cc1nn(C)c(F)c1C(=O)N(C1CC1)S(=O)(=O)c1ccc2c(c1)CCC(C)(C)O2 [Compound 456] | – | – | ≥ 70 | ≥ 70 | pest or weed control at 500 ppm (Puccinia recondita): ≥ 70%
22 | COc1nn(C)cc1C(=O)N(C1CC1)S(=O)(=O)c1ccc(Oc2ccc(Cl)cc2)cc1Cl [Compound 501] | – | – | ≥ 70 | ≥ 70 | –
23 | CCOc1nn(C)cc1C(=O)N(C1CC1)S(=O)(=O)c1ccc(Oc2ccc(OC)cc2)c(O)c1 [Compound 531] | – | – | ≥ 70 | ≥ 70 | pest or weed control at 500 ppm (Puccinia recondita): ≥ 70%; chromatographic logP [1, 7]: 3.8
24 | CCOc1nn(C)cc1C(=O)N(C1CC1)S(=O)(=O)c1ccc(Oc2ccc(C)cc2)c(O)c1 [Compound 542] | – | – | ≥ 70 | ≥ 70 | pest or weed control at 500 ppm (Puccinia recondita): ≥ 70%; chromatographic logP [1, 7]: 4.3
25 | CCOc1nn(C)cc1C(=O)N(C1CC1)S(=O)(=O)c1ccc(Oc2cccc(O)c2)c(O)c1 [Compound 546] | – | – | ≥ 70 | – | pest or weed control at 500 ppm (Puccinia recondita): ≥ 70%; chromatographic logP [1, 7]: 4.3
26 | CC1=C(C(=O)N(C2CC2)S(=O)(=O)c2ccccc2O)OCCS1 [Compound 652] | ≥ 70 | – | – | – | chromatographic logP [1, 6]: 2.78

— patent US7932283B2, “Fungicide N-cyclopropyl-sulfonylamide derivatives” (Bayer Cropscience AG, priority 2006, dated 2011)
